Measurements reported in US8063096B2, “Spirocyclic 3-phenyl-3substituted-4-ketolactams and-lactones” (Bayer Cropscience AG, priority 2001, dated 2011).

What was measured:
Type in all cases: in vivo
Aphis gossypii [1] = test: Aphis gossypii test (leaf dip, cotton); conditions: 500 ppm active compound, cotton leaves dipped
Experimental: (§1) [table] To produce a suitable preparation of active compound, 1 part by weight of active compound is mixed with the stated amounts of solvent and emulsifier, and the concentrate is diluted with emulsifier-containing water to the desired concentration. Cotton leaves (Gossypium hirsutum) which are heavily infested by the cotton aphids (Aphis gossypii) are treated by being dipped into the preparation of active compound of the desired concentration. After the desired period of time, the kill in % is determined. 100% means that all aphids have been killed; 0% means that none of the aphids have been killed.

Tetranychus urticae = test: Tetranychus test (OP-resistant/dip treatment); conditions: 100 ppm active compound, bean plants dipped, OP-resistant
Experimental: [table] To produce a suitable preparation of active compound, 1 part by weight of active compound is mixed with the stated amounts of solvent and emulsifier, and the concentrate is diluted with emulsifier-containing water to the desired concentration. Bean plants (Phaseolus vulgaris) which are heavily infested by all stages of the greenhouse […] spider mite (Tetranychus urticae) are dipped into a preparation of active compound of the desired concentration. After the desired period of time, the activity in % is determined. 100% means that all spider mites have been killed; 0% means that none of the spider mites have been killed.

Meloidogyne incognita = test: Meloidogyne test (gall formation on lettuce roots); conditions: 20 ppm active compound, nematicidal action by gall formation
Experimental: [table] To produce a suitable preparation of active compound, 1 part by weight of active compound is mixed with the stated amounts of solvent and emulsifier, and the concentrate is diluted with water to the desired concentration. Vessels are filled with sand, solution of active compound, Meloidogyne incognita egg/larvae suspension and lettuce seeds. The lettuce seeds germinate and the plants develop. On the roots, galls develop. After the desired period of time, the nematicidal action is determined in % by the formation of galls. 100% means that no galls have been found; 0% means that the number of galls on the treated plants corresponds to that of the untreated control.

Phaedon cochleariae = test: Phaedon larvae test; conditions: 500 ppm active compound, cabbage leaves dipped
Experimental: [table] To produce a suitable preparation of active compound, 1 part by weight of active compound is mixed with the stated amounts of solvent and emulsifier, and the concentrate is diluted with emulsifier-containing water to the desired concentration. Cabbage leaves (Brassica oleracea) are treated by being dipped into the preparation of active compound of the desired concentration and are populated with larvae of the mustard beetle (Phaedon cochleariae) while leaves are still moist. After the desired period of time, the kill in % is determined. 100% means that all beetle larvae have been killed; 0% means that none of the beetle larvae have been killed.

Myzus persicae [2] = test: Myzus test (leaf dip, cabbage); conditions: 500 ppm active compound, cabbage leaves dipped
Experimental: as §1, with “Cabbage” for “Cotton”, “(Brassica oleracea)” for “(Gossypium hirsutum)”, “peach” for “the cotton”, “(Myzus persicae)” for “(Aphis gossypii)”

Sinapis [3] = test: Post-emergence test, Sinapis; conditions: post-emergence/greenhouse; 250 g of ai/ha; after three weeks
Experimental: (§2) [table] To produce a suitable preparation of active compound, 1 part by weight of active compound is mixed with the stated amount of solvent, the stated amount of emulsifier is added and the concentrate is diluted with water to the desired concentration. Test plants of a height of 5-15 cm are sprayed with the preparation of active compound such that the particular amounts of active compound desired are applied per unit area. The concentration of the spray liquor is chosen such that the particular amounts of active compound desired are applied in 1000 l of water/ha. After three weeks, the degree of damage to the plants is rated in % damage in comparison to the development of the untreated control. The figures denote: • 0%=no effect (=like untreated control) • 100%=total destruction

Avena fatua [4] = test: Pre-emergence test, Avena fatua; conditions: pre-emergence/greenhouse; 250 g of ai/ha; after three weeks
Experimental: (§3) [table] To produce a suitable preparation of active compound, 1 part by weight of active compound is mixed with the stated amount of solvent, the stated amount of emulsifier is added and the concentrate is diluted with water to the desired concentration. Seeds of the test plants are sown in normal soil. After about 24 hours, the soil is sprayed with the preparation of active compound such that the particular amounts of active compound desired are applied per unit area. The concentration of the spray liquor is chosen such that the particular amounts of active compound desired are applied in 1000 l of water/ha. After three weeks, the degree of damage to the plants is rated in % damage in comparison to the development of the untreated control. The figures denote: • 0%=no effect (like untreated control) • 100%=total destruction

Alopecurus [5] = test: Pre-emergence test, Alopecurus; conditions: pre-emergence/greenhouse; 250 g of ai/ha; after three weeks
Experimental: as §3

Sinapis [6] = test: Pre-emergence test, Sinapis; conditions: pre-emergence/greenhouse; 250 g of ai/ha; after three weeks
Experimental: as §3

Avena fatua [7] = test: Post-emergence test, Avena fatua; conditions: post-emergence/greenhouse; 250 g of ai/ha; after three weeks
Experimental: as §2

Alopecurus [8] = test: Post-emergence test, Alopecurus; conditions: post-emergence/greenhouse; 250 g of ai/ha; after three weeks
Experimental: as §2

Setaria [9] = test: Pre-emergence test, Setaria; conditions: pre-emergence/greenhouse; 250 g of ai/ha; after three weeks
Experimental: as §3

Echinochloa [10] = test: Post-emergence test, Echinochloa; conditions: post-emergence/greenhouse; 250 g of ai/ha; after three weeks
Experimental: as §2

Setaria [11] = test: Post-emergence test, Setaria; conditions: post-emergence/greenhouse; 250 g of ai/ha; after three weeks
Experimental: as §2

Echinochloa [12] = test: Pre-emergence test, Echinochloa; conditions: pre-emergence/greenhouse; 250 g of ai/ha; after three weeks
Experimental: as §3

Myzus persicae [13] = test: Test for persistency: Myzus persicae (root-systemic action); conditions: 4 ppm in soil, broad beans
Experimental: (§4) [table] To produce a suitable preparation of active compound, 1 part by weight of active compound is mixed with the stated amounts of solvent and emulsifier, and the concentrate is diluted with water to the desired concentration. The preparation of active compound is mixed intimately with the soil. The stated concentration refers to the amount of active compound per volume unit of soil (mg/l). The treated soil is filled into pots, and into these pots is planted pre-germinated broad beans. In this way, the active compound can be taken up from the soil into the roots of the plants and be transported into the leaves. After the stated number of days, peach aphids (Myzus persicae) are, in infection chambers, placed on the leaves. After the desired period of time, the kill in % is determined. 100% means that all aphids have been killed; 0% means that none of the aphids have been killed.

Aphis gossypii [14] = test: Test for persistency: Aphis gossypii (root-systemic action); conditions: 4 ppm in soil, cotton
Experimental: as §4, with “cotton at the cotyledon stage.” for “pre-germinated broad beans.”, “cotton” for “peach”, “(Aphis gossypii)” for “(Myzus persicae)”

## COC1CCC2(CC1)NC(=O)C(Cl)(c1cc(C)ccc1C)C2=O (stereo not drawn) [Ex. I-1-a-2]
Aphis gossypii [1]
  Kill rate in % after 6d: 95%
Tetranychus urticae
  Kill rate in % after 7d: 98%
Meloidogyne incognita
  Kill rate in % after 14d: 90%

## Cc1cc(Br)cc(C)c1C1(Cl)C(=O)NC2(CCCOC2)C1=O (stereo not drawn) [Ex. I-1-b-1]
Tetranychus urticae
  Kill rate in % after 7d: 95%

## COC1CCC2(CC1)NC(=O)C(Cl)(c1cc(C)ccc1Cl)C2=O (stereo not drawn) [Ex. I-1-a-1]
Phaedon cochleariae
  Kill rate in % after 7d: 100%

## Cc1cc(Cl)ccc1C1(Cl)C(=O)NC2(CCOCC2)C1=O (stereo not drawn) [Ex. I-1-c-4]
Myzus persicae [2]
  Kill rate in % after 6d: 95%

## COC1CCC2(CC1)NC(=O)C(Cl)(c1ccc(OC(F)(F)F)cc1C)C2=O (stereo not drawn) [Ex. I-1-a-22]
Tetranychus urticae
  Kill rate in % after 7d: 100%

## COC1CCC2(CC1)NC(=O)C(Cl)(c1c(Cl)cc(Cl)c(C)c1Cl)C2=O (stereo not drawn) [Ex. I-1-a-27]
Myzus persicae [2]
  Kill rate in % after 6d: 90%
Meloidogyne incognita
  Kill rate in % after 14d: 100%

## COC1CCC2(CC1)NC(=O)C(Cl)(c1c(Cl)ccc(C)c1Cl)C2=O (stereo not drawn) [Ex. I-1-a-33]
Meloidogyne incognita
  Kill rate in % after 14d: 98%

## COc1cc(C(F)(F)F)cc(Cl)c1C1(Cl)C(=O)NC2(CCC(OC)CC2)C1=O (stereo not drawn) [Ex. I-1-a-5]
Tetranychus urticae
  Kill rate in % after 7d: 95%

## COC1CCC2(CC1)NC(=O)C(Cl)(c1c(C)cc(Br)cc1C)C2=O (stereo not drawn) [Ex. I-1-a-9]
Sinapis [3]
  % damage, Sinapis: 80%
Avena fatua [4]
  % damage, Avena fatua: 80%
Alopecurus [5]
  % damage, Alopecurus: 100%
Sinapis [6]
  % damage, Sinapis: 90%
Phaedon cochleariae
  Kill rate in % after 7d: 90%
Avena fatua [7]
  % damage, Avena fatua: 90%
Alopecurus [8]
  % damage, Alopecurus: 95%
Setaria [9]
  % damage, Setaria: 100%
Echinochloa [10]
  % damage, Echinochloa: 100%
Setaria [11]
  % damage, Setaria: 100%
Echinochloa [12]
  % damage, Echinochloa: 100%

## Cc1cc(Cl)cc(Cl)c1C1(Cl)C(=O)NC2(CCOC(C)C2)C1=O (stereo not drawn) [Ex. I-1-c-1]
Myzus persicae [13]; infection after 7 d
  Kill rate in % after 7d: 100%
Myzus persicae [13]; infection after 21 d
  Kill rate in % after 7d: 100%
Myzus persicae [13]; infection after 35 d
  Kill rate in % after 7d: 100%
Aphis gossypii [1]
  Kill rate in % after 6d: 90%
Aphis gossypii [14]; infection after 7 d
  Kill rate in % after 7d: 99%
Aphis gossypii [14]; infection after 21 d
  Kill rate in % after 7d: 99^ %
Aphis gossypii [14]; infection after 35 d
  Kill rate in % after 7d: 98^ %

## Cc1cc(Br)cc(Cl)c1C1(Cl)C(=O)NC2(CCCOC2)C1=O (stereo not drawn) [Ex. I-1-b-8]
Phaedon cochleariae
  Kill rate in % after 7d: 100%
